Results as given in paper PMC7914897, “Cytotoxic Potential of a-Azepano- and 3-Amino-3,4-SeCo-Triterpenoids” (International Journal of Molecular Sciences, 2021).

Columns and labels:
MALME-3M (Melanoma) = experiment: NCI-60 screen (SRB, 48 h); details: Homo sapiens
COLO 205 (Colon cancer) = experiment: NCI-60 screen (SRB, 48 h); details: Homo sapiens; for GI50: COLO 205; for IC (TGI): COLO 205, 48 h, read-out: TGI
SNB-75 (CNS cancer) = experiment: NCI-60 screen (SRB, 48 h); details: for GI50: SNB-75; for IC (TGI): SNB-75, 48 h, read-out: TGI
HOP-92 (NSC lung cancer) = experiment: NCI-60 screen (SRB, 48 h); details: Homo sapiens; for GI50: HOP-92; for IC (TGI): HOP-92, 48 h, read-out: TGI
MCF7 (Breast cancer) = experiment: NCI-60 screen (SRB, 48 h); details: Homo sapiens; for GI50: MCF7; for IC (TGI): MCF7, 48 h, read-out: TGI
SF-295 (CNS cancer) = experiment: NCI-60 screen (SRB, 48 h); details: Homo sapiens; for GI50: SF-295; for IC (TGI): SF-295, 48 h, read-out: TGI
[1] = system: NCI-H226 (NSC lung cancer); experiment: NCI-60 screen (SRB, 48 h); details: Homo sapiens; for GI50: NCI-H226
Melanoma subpanel = experiment: NCI-60 screen, subpanel; details: Homo sapiens; for IC (TGI): 48 h, read-out: TGI MG_MID; for GI50: read-out: GI50 MG_MID; for CC50: read-out: LC50 MG_MID
OVCAR-5 (Ovarian cancer) = experiment: NCI-60 screen (SRB, 48 h); details: Homo sapiens; for GI50: OVCAR-5
SW-620 (Colon cancer) = experiment: NCI-60 screen (SRB, 48 h); details: Homo sapiens; for GI50: SW-620; for IC (TGI): SW-620, 48 h, read-out: TGI
CNS cancer subpanel = experiment: NCI-60 screen, subpanel; details: Homo sapiens; for IC (TGI): 48 h, read-out: TGI MG_MID; for GI50: read-out: GI50 MG_MID
ACHN (Renal cancer) = experiment: NCI-60 screen (SRB, 48 h); details: for GI50 / IC (TGI): Homo sapiens; for IC (TGI): 48 h, read-out: TGI
HCT-15 (Colon cancer) = experiment: NCI-60 screen (SRB, 48 h); details: Homo sapiens; for GI50: HCT-15; for IC (TGI): HCT-15, 48 h, read-out: TGI
HCC-2998 (Colon cancer) = experiment: NCI-60 screen (SRB, 48 h); details: Homo sapiens; for GI50: HCC 2998
SN12C (Renal cancer) = experiment: NCI-60 screen (SRB, 48 h); details: Homo sapiens; for IC (TGI): 48 h, read-out: TGI
SNB-19 (CNS cancer) = experiment: NCI-60 screen (SRB, 48 h); details: Homo sapiens; for GI50: SNB-19; for IC (TGI): SNB-19, 48 h, read-out: TGI
HCT-116 (Colon cancer) = experiment: NCI-60 screen (SRB, 48 h); details: Homo sapiens; for GI50: HCT-116; for activity at 10 µM / IC (TGI): HCT-116, 48 h; for activity at 10 µM: read-out: Growth % of the Most Sensitive Cell Lines; for IC (TGI): read-out: TGI
M14 (Melanoma) = experiment: NCI-60 screen (SRB, 48 h); details: for GI50: M14; for IC (TGI): M14, 48 h, read-out: TGI
[2] = system: MDA-MB-31/ATCC (Breast cancer); experiment: NCI-60 screen (SRB, 48 h); details: Homo sapiens; for IC (TGI): 48 h, read-out: TGI
UACC-257 (Melanoma) = experiment: NCI-60 screen (SRB, 48 h); details: Homo sapiens; for GI50: UACC-257; for IC (TGI): UACC-257, 48 h, read-out: TGI
[3] = system: NIH 3T3 (non-malignant mouse fibroblasts); experiment: SRB cytotoxicity assay, 72 h; assay type: cell-based; details: Mus musculus, NIH3T3; NIH 3T3, 72 h, cut-off 30 µM; read-out: EC50
How it was run: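 Seed, 24 h; compound 0–30 µM serial dilutions, 72 h (DMSO ≤0.5%); fix 10% TCA, 4 °C; stain 0.4% SRB ~20 min; 1% AcOH wash; solubilise 10 mM Tris; A570. EC50 vs untreated.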

[4] = system: NCI-H322M (NSC lung cancer); experiment: NCI-60 screen (SRB, 48 h); details: Homo sapiens; for IC (TGI): 48 h, read-out: TGI
A498 (Renal cancer) = experiment: NCI-60 screen (SRB, 48 h); details: for GI50 / IC (TGI) / CC50: Homo sapiens; for GI50: A498; for IC (TGI): A498, 48 h, read-out: TGI; for CC50: A498, read-out: LC50

## C=C(C)[C@@H]1CC[C@]2(C(=O)N[C@H](CO)Cc3ccccc3)CC[C@]3(C)[C@H](CC[C@@H]4[C@@]5(C)CCCNC(C)(C)[C@@H]5CC[C@]43C)[C@@H]12 [Compound 11]
MALME-3M (Melanoma)
  GI50: 1.42 µM
COLO 205 (Colon cancer)
  GI50: 1.31 µM
  IC (TGI): 2.94 µM
SNB-75 (CNS cancer); Homo sapiens
  GI50: 1.43 µM
  IC (TGI): 2.87 µM
SNB-75 (CNS cancer); Homo sapiens, SNB-75, read-out: LC50
  CC50: 5.72 µM
SNB-75 (CNS cancer); SNB-75, 1 dose 10 µM
  Growth % of the Most Sensitive Cell Lines: −95.12%
HOP-92 (NSC lung cancer)
  GI50: 1.42 µM
  IC (TGI): 3.01 µM
HOP-92 (NSC lung cancer); HOP-92, read-out: LC50
  CC50: 6.42 µM
MCF7 (Breast cancer)
  GI50: 0.49 µM
  IC (TGI): 2.06 µM
SF-295 (CNS cancer)
  GI50: 1.67 µM
  IC (TGI): 3.21 µM
[1]
  GI50: 1.74 µM
[1]; NCI-H226, 48 h, read-out: TGI
  IC (TGI): 4.01 µM
Melanoma subpanel
  IC (TGI): 2.87 µM
  GI50: 1.42 µM
  CC50: 6.07 µM
OVCAR-5 (Ovarian cancer)
  GI50: 1.69 µM
OVCAR-5 (Ovarian cancer); OVCAR-5, 48 h, read-out: TGI
  IC (TGI): 3.18 µM
SW-620 (Colon cancer)
  GI50: 0.85 µM
  IC (TGI): 2.26 µM
CNS cancer subpanel
  IC (TGI): 3.08 µM
  GI50: 1.51 µM
CNS cancer subpanel; read-out: LC50 MG_MID
  CC50: 5.72 µM
ACHN (Renal cancer); 1 dose 10 µM
  Growth % of the Most Sensitive Cell Lines: −95.87%
ACHN (Renal cancer)
  GI50: 1.71 µM
  IC (TGI): 3.16 µM
HCT-15 (Colon cancer)
  GI50: 0.97 µM
  IC (TGI): 2.32 µM
HCC-2998 (Colon cancer)
  GI50: 1.61 µM
HCC-2998 (Colon cancer); HCC 2998, 48 h, read-out: TGI
  IC (TGI): 3.05 µM
SN12C (Renal cancer)
  GI50: 1.81 µM
  IC (TGI): 3.55 µM
SNB-19 (CNS cancer)
  GI50: 1.17 µM
  IC (TGI): 2.72 µM
HCT-116 (Colon cancer)
  GI50: 0.31 µM
  activity at 10 µM: -94.8%
  IC (TGI): 1.25 µM
M14 (Melanoma); Homo sapiens
  GI50: 0.74 µM
  IC (TGI): 2.19 µM
[2]
  GI50: 1.34 µM
  IC (TGI): 2.77 µM
UACC-257 (Melanoma)
  GI50: 1.78 µM
  IC (TGI): 3.34 µM
UACC-257 (Melanoma); UACC-257, read-out: LC50
  CC50: 6.25 µM
[3]
  EC50: 1.23 ± 0.3 µM
[4]
  GI50: 1.55 µM
  IC (TGI): 2.79 µM
A498 (Renal cancer); A498, 1 dose 10 µM
  Growth % of the Most Sensitive Cell Lines: −97.92%
A498 (Renal cancer)
  GI50: 1.49 µM
  IC (TGI): 2.94 µM
  CC50: 5.81 µM

## C[C@H]1[C@H](C)CC[C@]2(C(=O)Nc3ccc4ncccc4c3)CC[C@]3(C)C(=CC[C@@H]4[C@@]5(C)CCCNC(C)(C)[C@@H]5CC[C@]43C)[C@H]12 [Compound 14]
MALME-3M (Melanoma)
  GI50: 1.66 µM
COLO 205 (Colon cancer)
  GI50: 1.75 µM
  IC (TGI): 3.59 µM
SNB-75 (CNS cancer); Homo sapiens
  GI50: 1.52 µM
  IC (TGI): 3.09 µM
HOP-92 (NSC lung cancer)
  GI50: 1.54 µM
  IC (TGI): 3.14 µM
MCF7 (Breast cancer)
  GI50: 1.56 µM
  IC (TGI): 3.25 µM
SF-295 (CNS cancer)
  GI50: 1.65 µM
  IC (TGI): 3.17 µM
[1]
  GI50: 2.1 µM
Melanoma subpanel
  IC (TGI): 3.32 µM
  GI50: 1.77 µM
  CC50: 6.25 µM
OVCAR-5 (Ovarian cancer)
  GI50: 1.68 µM
SW-620 (Colon cancer)
  GI50: 1.8 µM
  IC (TGI): 3.37 µM
SW-620 (Colon cancer); SW-620, read-out: LC50
  CC50: 6.31 µM
CNS cancer subpanel
  IC (TGI): 3.17 µM
  GI50: 1.67 µM
ACHN (Renal cancer)
  GI50: 1.77 µM
  IC (TGI): 3.24 µM
HCT-15 (Colon cancer)
  GI50: 1.59 µM
  IC (TGI): 3.15 µM
HCC-2998 (Colon cancer)
  GI50: 1.4 µM
SN12C (Renal cancer)
  GI50: 1.73 µM
  IC (TGI): 3.33 µM
SNB-19 (CNS cancer)
  GI50: 1.85 µM
  IC (TGI): 3.4 µM
HCT-116 (Colon cancer)
  GI50: 1.6 µM
  activity at 10 µM: -100%
  IC (TGI): 3.11 µM
HCT-116 (Colon cancer); HCT-116, read-out: LC50
  CC50: 6.05 µM
M14 (Melanoma); Homo sapiens
  GI50: 1.94 µM
  IC (TGI): 3.59 µM
M14 (Melanoma); Homo sapiens, M14, read-out: LC50
  CC50: 6.65 µM
M14 (Melanoma); M14, 1 dose 10 µM
  Growth % of the Most Sensitive Cell Lines: −92.02%
[2]
  GI50: 1.8 µM
  IC (TGI): 3.4 µM
UACC-257 (Melanoma)
  GI50: 1.87 µM
  IC (TGI): 3.54 µM
[3]
  EC50: 1.69 ± 0.1 µM
[4]
  GI50: 1.72 µM
  IC (TGI): 3.11 µM
A498 (Renal cancer)
  GI50: 1.56 µM
  IC (TGI): 2.96 µM
  CC50: 5.6 µM
